Reference: article doi:10.1101/2024.09.04.611242v3 (bioRxiv, 2024)

Assays:
PC12 cells [1] = test: Toxicity of shuttles on PC12 cells; format: cell-based; settings: 5 x 10^4 PC12 cells, 24h, 100% DMEM media
Cu(II)Aβ1-16 = Cu(II)Aβ1-16 (Homo sapiens, UniProt P05067); test: Retrieval of Cu; format: binding; settings: 25°C; for time to complete retrieval of Cu(II) from Aβ1-16: HEPES buffer / 10% DMEM, shuttle 5 µM, Aβ1-16 10 µM, Cu(II) 5 µM; for Kinetics of Cu(II) transfer from Aß1-16 to shuttle, DMEM 10%: shuttle=Cu(II)=5 µM, Aß1-16=10 µM, 10% DMEM, NBD emission 545 nm, n=3
PC12 cells [2] = test: Rescue of PC12 cells from Cu; format: cell-based; settings: 5 µM shuttle, 10 µM Cu(II)Aβ1-16 0.5:1, AscH-, 10% DMEM, 24h, MTT, n=3
[3] = Reduction/release of shuttle-bound Cu; format: physicochemical; settings: 5 mM GSH, HEPES 100 mM pH 7.4
microglial cells in OHSC = test: Microglia proliferation and activation in OHSC; format: cell-based, CD1 mice; settings: 10 µM Cu(II)=shuttle, 20 µM Aβ1-40/42, 48h, Iba1 staining, n=3
Selective Cu = format: binding; settings: for Average half-time of Cu(II) withdrawal, Cu(II), D/F / Average half-time of Cu(II) withdrawal, Cu(II), DMEM 10%: Cu(II) alone, Cu(II)=shuttle=5 µM, 25°C, NBD emission at 545 nm, n=3; for Average half-time of Cu(II) withdrawal, Cu(II), D/F: D/F 100%; for Cu(II) withdrawn from D/F media over the measurement duration: D/F media spiked with 5 µM Cu(II), shuttle 5 µM, NBD emission followed for 5h

Compound	toxicity to PC12 cells (in words) (PC12 cells [1])	time to complete retrieval of Cu(II) from Aβ1-16 (Cu(II)Aβ1-16)	Kinetics of Cu(II) transfer from Aß1-16 to shuttle, DMEM 10% (Cu(II)Aβ1-16) [s]	rescue of Cu(II)Aβ1-16-induced toxicity in PC12 cells (PC12 cells [2])	half-time of reduction of shuttle-bound Cu(II) by GSH (in words) [3]	effect on Cu(II)(Aβ1-40/42)-induced microglial cell proliferation in OHSC (microglial cells in OHSC)	Average half-time of Cu(II) withdrawal, Cu(II), D/F (Selective Cu) [min]	Average half-time of Cu(II) withdrawal, Cu(II), DMEM 10% (Selective Cu) [min]	Cu(II) withdrawn from D/F media over the measurement duration (Selective Cu)
CN=C([S-])N/N=C/C=N/NC([S-])=NC.[Cu+2] [Cu(II)GTSM]	toxic to PC12 cells	–	–	–	–	–	–	–	–
CNC(=S)NN=CC=NNC(=S)NC [GTSM, glyoxal-bis(4-methylthiosemicarbazonato)]	toxic at nanomolar concentration	–	–	–	–	–	–	–	–
H2N-Dap-His-His-αR5W4^NBD [DapHH-αR5W4^NBD]	–	less than two minutes	47.9 ± 9.2	reversed	only a few minutes	reduced microglial cell proliferation	4.3 ± 0.6	< 1	> 80%
H2N-His-Dap-His-αR5W4^NBD [HDapH-αR5W4^NBD]	–	less than two minutes	14.5 ± 3.8	reversed	only a few minutes	reduced microglial cell proliferation	< 1	< 1	completely withdrew
